Measured values as given in patent US8044056B2, “Adenine compound” (priority 2007, dated 2011).

Molecular target: T1, Human TLR7 (Homo sapiens, UniProt Q9NYK1)
T1 construct: expressed in transfected cells; host or cells: HEK293 (hTLR7/seap-293)
T1 sequence (Q9NYK1 27-1049): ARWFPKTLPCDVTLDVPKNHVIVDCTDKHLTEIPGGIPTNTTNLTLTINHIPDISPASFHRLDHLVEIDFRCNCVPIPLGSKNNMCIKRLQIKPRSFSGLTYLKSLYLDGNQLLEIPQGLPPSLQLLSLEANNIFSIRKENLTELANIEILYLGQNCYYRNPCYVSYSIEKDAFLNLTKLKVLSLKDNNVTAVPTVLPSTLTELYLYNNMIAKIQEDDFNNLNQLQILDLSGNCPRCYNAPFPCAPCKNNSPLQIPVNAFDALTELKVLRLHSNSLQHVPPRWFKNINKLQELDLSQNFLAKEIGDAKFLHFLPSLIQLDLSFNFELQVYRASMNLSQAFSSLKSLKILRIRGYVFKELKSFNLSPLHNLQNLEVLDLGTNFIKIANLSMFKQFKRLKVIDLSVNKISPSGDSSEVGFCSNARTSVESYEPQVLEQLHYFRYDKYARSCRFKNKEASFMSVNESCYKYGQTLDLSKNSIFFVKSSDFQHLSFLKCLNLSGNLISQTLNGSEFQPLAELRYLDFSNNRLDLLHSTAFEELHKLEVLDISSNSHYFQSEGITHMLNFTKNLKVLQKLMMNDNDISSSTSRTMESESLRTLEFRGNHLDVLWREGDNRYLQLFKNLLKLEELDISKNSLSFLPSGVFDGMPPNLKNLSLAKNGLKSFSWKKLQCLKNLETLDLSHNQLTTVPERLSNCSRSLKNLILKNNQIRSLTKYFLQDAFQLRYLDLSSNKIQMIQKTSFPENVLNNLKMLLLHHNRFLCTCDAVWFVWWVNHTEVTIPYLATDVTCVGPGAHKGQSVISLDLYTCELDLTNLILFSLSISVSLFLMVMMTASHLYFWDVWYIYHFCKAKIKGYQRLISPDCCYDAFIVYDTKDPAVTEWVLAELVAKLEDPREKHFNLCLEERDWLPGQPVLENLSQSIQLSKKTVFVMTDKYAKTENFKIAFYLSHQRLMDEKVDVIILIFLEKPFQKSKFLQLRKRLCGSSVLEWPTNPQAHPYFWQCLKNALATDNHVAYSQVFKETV
Assay: Human TLR7 reporter assay (NF-kB-SEAP)
Type: cell-based
Conditions: HEK293 cells stably carrying human TLR7 plasmid and NF-kB-SEAP reporter; 20 hours incubation; 1 nM-10 μM; absorbance 405 nm; read-out: Human TLR7 binding activity (pEC50) (converted)
Procedure: Human TLR7 or rat TLR7 plasmid and a reporter plasmid (NF-kB-SEAP) stably-induced HEK293 cells were suspended in DMEM media (10% FBS, 1% NEAA, 10 μg/mL blastocidin S HCl, 100 ug/mL Zeocin), and the suspension was seeded on a 96-well plate in an amount of 90 μl/well (hTLR7/seap-293: 20000 cells/well, rTLR7/seap-293: 25000 cells/well).
To the cells seeded on the 96-well plate was added a test compound wherein DMSO stock solution (2 μl) was hundredfold diluted with medium (200 μl) in an amount of 10 μl/well (final concentration; 1 nM-10 μM, common ratio 3). The mixture was stirred by tapping in the side of the plate, and then incubated for 20 hours in a CO2 incubator. To the cells stimulated by a test compound was added a substrate for reporter assay (substrate for SEAP, pNPP) in an amount of 50 μl/well. Ten minutes after the addition of the substrate, a quenching solution (4N NaOH) was added in an amount of 50 μl/well, and the enzymatic reaction was quenched. Top seal A was attached on the plate, and the absorbance was measured by microplate reader (405 nm).

SMILES	EC50 [nM]
CCCCOc1nc(N)c2[nH]c(=O)n(CCCN3CCN(C/C=C/c4ccccc4)CC3)c2n1 [Example 4, 2-Butoxy-9-(3-[4-cinnamylpiperazin-1-yl]propyl)-7,8-dihydro-8-oxoadenine]	794
CCCCOc1nc(N)c2[nH]c(=O)n(CCCCCCCN3CCN(c4ccc(C(C)=O)cc4)CC3)c2n1 [Example 5, 9-(7-[4-(4-Acetylphenyl)piperazin-1-yl]heptyl-2-butoxy-7,8-dihydro)-8-oxoadenine]	158
CCCCOc1nc(N)c2[nH]c(=O)n(CCCCCCCN3CCN(c4ccncc4)CC3)c2n1 [Example 6, 2-Butoxy-7,8-dihydro-9-(7-[4-(4-pyridyl)piperazin-1-yl]heptyl)-8-oxoadenine]	31.6
CCCCOc1nc(N)c2[nH]c(=O)n(CCCCCCCN3CCC(Oc4ccc(Cl)cc4C)CC3)c2n1 [Example 7, 2-Butoxy-9-(7-[4-(4-chloro-2-methylphenoxy)piperidin-1-yl]heptyl)-7,8-dihydro-8-oxoadenine]	631
CCCCOc1nc(N)c2[nH]c(=O)n(CCCCCCCN3CCN(c4ccc(OC)cc4)CC3)c2n1 [Example 8, 2-Butoxy-7,8-dihydro-9-(7-[4-(4-methoxyphenyl)piperazin-1-yl]heptyl)-8-oxoadenine]	251
